From the supplement of paper PMC11061612

What was measured:
Experiment in all cases: Bliss excess, mean over the matrix (fraction); higher = more synergy
[1] = tested on: OE33 (Esophageal Adenocarcinoma)
Outline: (§1)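 After 24 hours at 37°C and 5% CO2 in 1536-well plates, cells in DMEM/F12 or RPMI plus 10% FBS received two-drug dose matrices for 72 hours. Viability came from CellTiter-Glo 2.0 luminescence and was scaled as inhibition, anchored at 0 by vehicle wells and at 1 by blank wells. Combination Emax is taken as the second-highest inhibition in the matrix, and Bliss excess as the observed combination effect less EA + EB − EA·EB, with EA and EB the single-agent effects.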

[2] = tested on: MDA-MB-453 (Breast Carcinoma)
Outline: as §1

[3] = tested on: DU-145 (Prostate Carcinoma)
Outline: as §1

[4] = tested on: HCC1500 (Breast Carcinoma)
Outline: as §1

[5] = tested on: NCI-H1993 (Lung Adenocarcinoma)
Outline: as §1

[6] = tested on: SW982 (Other Solid Carcinomas)
Outline: as §1

[7] = tested on: KMRC-1 (Kidney Carcinoma)
Outline: as §1

[8] = tested on: MV-4-11 (Acute Myeloid Leukemia)
Outline: as §1

[9] = tested on: NCI-H1355 (Lung Adenocarcinoma)
Outline: as §1

[10] = tested on: MOLT-4 (T-Lymphoblastic Leukemia)
Outline: as §1

[11] = tested on: SK-N-AS (Neuroblastoma)
Outline: as §1

[12] = tested on: Mo-T (Other Blood Carcinomas)
Outline: as §1

[13] = tested on: EW-1 (Ewing's Sarcoma)
Outline: as §1

[14] = tested on: NCI-H522 (Lung Adenocarcinoma)
Outline: as §1

[15] = tested on: EFO-21 (Ovarian Carcinoma)
Outline: as §1

[16] = tested on: ME-180 (Cervical Carcinoma)
Outline: as §1

[17] = tested on: ML-2 (Acute Myeloid Leukemia)
Outline: as §1

[18] = tested on: EJM (Plasma Cell Myeloma)
Outline: as §1

[19] = tested on: HCC1937 (Breast Carcinoma)
Outline: as §1

[20] = tested on: NCI-H1092 (Small Cell Lung Carcinoma)
Outline: as §1

Row | SMILES | Bliss excess [1] | Bliss excess [2] | Bliss excess [3] | Bliss excess [4] | Bliss excess [5] | Bliss excess [6] | Bliss excess [7] | Bliss excess [8] | Bliss excess [9] | Bliss excess [10] | Bliss excess [11] | Bliss excess [12] | Bliss excess [13] | Bliss excess [14] | Bliss excess [15] | Bliss excess [16] | Bliss excess [17] | Bliss excess [18] | Bliss excess [19] | Bliss excess [20]
1 | CCN(CCO)CCCOc1ccc2c(Nc3cc(CC(=O)Nc4cccc(F)c4)[nH]n3)ncnc2c1 [AZD2811] + O=C(c1cc(Cc2n[nH]c(=O)c3ccccc23)ccc1F)N1CCN(C(=O)C2CC2)CC1 [Olaparib] (first compound max 1 µM, 7x7, partner max 10 µM) | -0.0094 | -0.0253 | -0.0105 | 0.0231 | -0.0211 | -0.0365 | -0.015 | -0.0339 | 0.0006 | -0.0029 | 0.0255 | -0.027 | 0.0008 | 0.0123 | -0.0409 | -0.0208 | -0.0595 | 0.0335 | -0.0059 | -0.0196
2 | CN(CCO)CC[C@H](CSc1ccccc1)Nc1ccc(S(=O)(=O)NC(=O)c2ccc(N3CCC([C@@H](O)c4ccccc4-c4ccc(Cl)cc4)CC3)cc2)cc1S(=O)(=O)C(F)(F)F [AZD4320] + CN(C)CCCOc1ccc(-c2ccc3ncc4c(c3c2)n(C2CCOCC2)c(=O)n4C)cn1 [AZD0156] (first compound max 1 µM, 7x7, partner max 1 µM) | -0.0312 | -0.0449 | -0.0284 | 0.0352 | -0.0734 | -0.0487 | -0.0245 | -0.034 | -0.0888 | 0.0052 | -0.0331 | -0.0982 | 0.0527 | -0.027 | -0.0579 | -0.0339 | -0.0056 | 0.0079 | 0.0007 | -0.0078
3 | COc1nnc2ccc(N3CCC(c4ccc(OCCN5CCN(C)C(=O)[C@H]5C)cc4)CC3)nn12 [AZD5153] + C=CCn1c(=O)c2cnc(Nc3ccc(N4CCN(C)CC4)cc3)nc2n1-c1cccc(C(C)(C)O)n1 [AZD1775] (first compound max 1 µM, partner max 1 µM) | -0.0386 | -0.0243 | -0.0286 | 0.0305 | -0.0758 | -0.079 | -0.0108 | -0.0114 | 0.0155 | 0.0171 | -0.056 | -0.0532 | -0.0484 | -0.0617 | -0.0036 | -0.022 | -0.0214 | 0.0229 | -0.0921 | 0.0051
4 | COc1nnc2ccc(N3CCC(c4ccc(OCCN5CCN(C)C(=O)[C@H]5C)cc4)CC3)nn12 [AZD5153] + CC1(C)CCC(CN2CCN(c3ccc(C(=O)NS(=O)(=O)c4ccc(NCC5CCOCC5)c([N+](=O)[O-])c4)c(Oc4cnc5[nH]ccc5c4)c3)CC2)=C(c2ccc(Cl)cc2)C1 [Venetoclax] (first compound max 1 µM, 7x7, partner max 1 µM) | -0.0775 | -0.0381 | -0.0181 | -0.04 | -0.0456 | -0.0581 | -0.063 | 0.0014 | -0.0243 | -0.0198 | -0.0792 | -0.0447 | -0.068 | -0.0711 | -0.0464 | -0.0515 | 0.0122 | -0.0381 | -0.0815 | 0.0191
5 | COc1nnc2ccc(N3CCC(c4ccc(OCCN5CCN(C)C(=O)[C@H]5C)cc4)CC3)nn12 [AZD5153] + CCN(CCO)CCCOc1ccc2c(Nc3cc(CC(=O)Nc4cccc(F)c4)[nH]n3)ncnc2c1 [AZD2811] (first compound max 1 µM, 7x7, partner max 1 µM) | -0.0523 | -0.0087 | -0.0241 | 0.0233 | -0.0401 | -0.0857 | -0.0437 | -0.0185 | 0.0143 | 0.0277 | -0.0065 | 0.0014 | -0.0086 | -0.115 | -0.0771 | -0.0644 | -0.0355 | 0.0224 | -0.0581 | 0.0499
6 | COc1nnc2ccc(N3CCC(c4ccc(OCCN5CCN(C)C(=O)[C@H]5C)cc4)CC3)nn12 [AZD5153] + C[C@@H]1COCCN1C2=NC(=NC(=C2)C3(CC3)[S@](=N)(=O)C)C4=C5C=CNC5=NC=C4 [AZD6738] (first compound max 1 µM, 7x7, partner max 10 µM) | -0.0427 | -0.0534 | -0.0094 | 0.0792 | -0.0462 | -0.0392 | 0.0195 | 0.0009 | -0.006 | 0.0394 | 0.002 | -0.0184 | 0.0041 | -0.0075 | -0.0069 | -0.0108 | -0.0116 | 0.0187 | -0.0516 | 0.0493
7 | COc1nnc2ccc(N3CCC(c4ccc(OCCN5CCN(C)C(=O)[C@H]5C)cc4)CC3)nn12 [AZD5153] + Cc1c2c(nn1C)CSCc1cc(n(C)n1)CSc1cc(c3ccccc3c1)OCCCc1c(C(=O)O)n(C)c3c-2c(Cl)ccc13 [AZD5991] (first compound max 1 µM, 7x7, partner max 1 µM) | -0.0711 | 0.0437 | -0.021 | 0.052 | -0.0106 | -0.0488 | -0.0482 | -0.0001 | -0.0274 | 0.0492 | -0.0164 | -0.0592 | 0.0165 | 0.0012 | -0.0428 | -0.0435 | 0.0582 | 0.0564 | -0.0426 | 0.003
8 | COc1nnc2ccc(N3CCC(c4ccc(OCCN5CCN(C)C(=O)[C@H]5C)cc4)CC3)nn12 [AZD5153] + Cn1cnc2c(F)c(Nc3ccc(Br)cc3Cl)c(C(=O)NOCCO)cc21 [Selumetinib] (first compound max 1 µM, 7x7, partner max 10 µM) | 0.0318 | -0.0141 | 0.0192 | 0.0011 | -0.0228 | -0.0039 | -0.0365 | 0.0309 | 0.0212 | -0.0161 | 0.0307 | -0.0656 | 0.041 | -0.042 | -0.0593 | -0.019 | 0.075 | 0.0207 | -0.0523 | -0.0592
9 | Cc1c2c(nn1C)CSCc1cc(n(C)n1)CSc1cc(c3ccccc3c1)OCCCc1c(C(=O)O)n(C)c3c-2c(Cl)ccc13 [AZD5991] + C1CN(CCC1(C(=O)N[C@@H](CCO)C2=CC=C(C=C2)Cl)N)C3=NC=NC4=C3C=CN4 [Capivasertib] (first compound max 1 µM, 7x7, partner max 3 µM) | -0.0328 | 0.05 | 0.007 | 0.0467 | 0.0523 | -0.0074 | -0.0076 | -0.0089 | -0.0016 | 0.0964 | 0.0017 | -0.0046 | 0.0232 | 0.0415 | -0.0406 | -0.028 | -0.0159 | 0.0504 | -0.0108 | 0.0204
10 | Cc1c2c(nn1C)CSCc1cc(n(C)n1)CSc1cc(c3ccccc3c1)OCCCc1c(C(=O)O)n(C)c3c-2c(Cl)ccc13 [AZD5991] + C=CCn1c(=O)c2cnc(Nc3ccc(N4CCN(C)CC4)cc3)nc2n1-c1cccc(C(C)(C)O)n1 [AZD1775] (first compound max 1 µM, partner max 1 µM) | -0.023 | -0.0091 | 0.0621 | 0.0305 | 0.0026 | -0.0549 | 0.0071 | -0.0407 | 0.0071 | -0.0043 | -0.066 | 0.0127 | 0.01 | -0.0201 | 0.0177 | -0.0379 | -0.0342 | 0.0357 | -0.0157 | -0.048
11 | Cc1c2c(nn1C)CSCc1cc(n(C)n1)CSc1cc(c3ccccc3c1)OCCCc1c(C(=O)O)n(C)c3c-2c(Cl)ccc13 [AZD5991] + CC1(C)CCC(CN2CCN(c3ccc(C(=O)NS(=O)(=O)c4ccc(NCC5CCOCC5)c([N+](=O)[O-])c4)c(Oc4cnc5[nH]ccc5c4)c3)CC2)=C(c2ccc(Cl)cc2)C1 [Venetoclax] (first compound max 1 µM, 7x7, partner max 1 µM) | -0.0077 | 0.0023 | -0.0185 | 0.256 | 0.0009 | -0.0312 | -0.0446 | 0.0591 | -0.0567 | 0.124 | 0.0857 | -0.0211 | 0.103 | -0.0118 | -0.0608 | 0.0131 | 0.16 | 0.0164 | -0.0208 | 0.117
12 | Cc1c2c(nn1C)CSCc1cc(n(C)n1)CSc1cc(c3ccccc3c1)OCCCc1c(C(=O)O)n(C)c3c-2c(Cl)ccc13 [AZD5991] + CN(C)CCCOc1ccc(-c2ccc3ncc4c(c3c2)n(C2CCOCC2)c(=O)n4C)cn1 [AZD0156] (first compound max 1 µM, 7x7, partner max 1 µM) | -0.0227 | -0.0091 | 0.0146 | 0.0453 | -0.0369 | -0.0485 | -0.0412 | -0.0395 | -0.0298 | -0.0058 | -0.0303 | -0.0236 | 0.0051 | -0.0354 | -0.0062 | 0.0231 | -0.0149 | 0.0241 | 0.0106 | 0.0063
